In patent US8188135B2, “Compounds as cannabinoid receptor ligands” (priority 2008, dated 2012) one finds Ki and EC50 data, which are given here for 17 compounds.

Assay [1] addresses T1, rat CB2 (Rattus norvegicus, UniProt Q9QZN9).
T1 sequence (Q9QZN9 1-360): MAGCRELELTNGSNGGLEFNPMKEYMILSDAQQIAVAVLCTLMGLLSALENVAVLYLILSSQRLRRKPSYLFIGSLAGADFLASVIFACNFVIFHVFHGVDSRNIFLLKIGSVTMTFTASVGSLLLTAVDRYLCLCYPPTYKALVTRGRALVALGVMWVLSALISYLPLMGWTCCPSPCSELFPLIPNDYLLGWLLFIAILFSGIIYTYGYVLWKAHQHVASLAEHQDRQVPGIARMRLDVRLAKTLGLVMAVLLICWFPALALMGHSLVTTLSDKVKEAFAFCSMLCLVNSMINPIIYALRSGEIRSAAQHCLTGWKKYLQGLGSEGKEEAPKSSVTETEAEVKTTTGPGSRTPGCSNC
Description: rat CB2 radioligand binding assay ([3H]CP 55,940 competition). Set-up: expressed in transfected cells; host or cells: HEK293. The settings on record: rat CB2 (Ki, nM), HEK293 membranes, 0.5 nM [3H]CP 55,940. The method, boiled down:
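Membranes (20 μg protein/well) from HEK293 cells stably expressing the receptor were incubated 45 min at 30 °C with 0.5 nM [3H]CP 55,940 and five concentrations of test compound (0.01 nM–10 μM) in Tris/EDTA/MgCl2/BSA buffer, pH 7.4. Bound ligand was measured by GF/C filtration and scintillation counting; 10 μM CP 55,940 defined nonspecific binding.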

Another assay addresses T2, human CB2 receptors (Homo sapiens, UniProt P34972).
T2 construct: expressed in transfected cells; host or cells: HEK293
Description: human CB2 radioligand binding assay ([3H]CP 55,940 competition). The settings on record: human CB2 (Ki, nM), HEK293 membranes, 0.5 nM [3H]CP 55,940. Summed up:
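Membranes from HEK293 cells stably expressing human CB2 (5 μg protein/well) competed against 0.5 nM [3H]CP 55,940 with five concentrations of test ligand (0.01 nM to 10 μM), pH 7.4 Tris buffer with BSA, 90 min at 30 °C. Filtration and scintillation counting; nonspecific binding with 10 μM unlabeled CP 55,940.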

Assay [2] deals with T1, rat CB2. Description: rat CB2 cyclase functional assay (HitHunter cAMP). The conditions noted are these: HEK cells, forskolin 18 μM. Set-up: expressed in transfected cells; host or cells: HEK. The class given is cell-based. As to the method: (§1) The cyclase functional assays were performed using the HitHunter™ cAMP assay kit from DiscoveRx (Fremont, Calif.) according to vendor's protocol. Briefly, HEK cells expressing CB2 or CB1 receptors (rat or human) were detached using cell dissociation buffer (Invitrogen, Carlsbad, Calif.), dispersed and placed in suspension at 10,000 cells per well in 96 well plates prior to the assay. Cell suspensions were incubated at 37° C. for 20 min with variable concentrations of test ligands and or 10 μM CP 55,940-positive control in the presence of a fixed concentration of forskolin (18 μM for rat CB2 and 37 μM for rat CB1) in Dulbescco's phosphate-buffered saline (Invitrogen, Carlsbad, Calif.) supplemented with bovine serum albumin (0.01% final concentration). The reactions were terminated by the addition of lysis buffer and the luminescence was detected following the procedure according to the manufacturer's instructions. EC50 values were calculated using sigmoidal dose-response curve fitting from Prism (GraphPad).

In another assay the target is T3, Rat CB1 (Rattus norvegicus, UniProt P20272).
T3 construct: expressed in transfected cells; host or cells: HEK
The experiment in a line: rat CB1 cyclase functional assay (HitHunter cAMP). The class given is cell-based. The conditions noted are these: HEK cells, forskolin 37 μM. On the procedure:
as §1

Each structure is given as a SMILES string. Like-named read-outs stand apart in the source and are kept apart here.

T2 sequence (P34972 whole entry): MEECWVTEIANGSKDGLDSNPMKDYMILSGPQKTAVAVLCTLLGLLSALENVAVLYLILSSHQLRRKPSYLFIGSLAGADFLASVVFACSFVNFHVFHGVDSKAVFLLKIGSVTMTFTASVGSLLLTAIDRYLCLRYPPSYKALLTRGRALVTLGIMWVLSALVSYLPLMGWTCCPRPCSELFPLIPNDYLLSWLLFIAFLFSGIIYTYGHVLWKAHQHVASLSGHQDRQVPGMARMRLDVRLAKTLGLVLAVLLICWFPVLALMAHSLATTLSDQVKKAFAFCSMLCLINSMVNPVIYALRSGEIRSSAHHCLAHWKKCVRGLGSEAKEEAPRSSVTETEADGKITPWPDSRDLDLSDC
T3 sequence (P20272 whole entry): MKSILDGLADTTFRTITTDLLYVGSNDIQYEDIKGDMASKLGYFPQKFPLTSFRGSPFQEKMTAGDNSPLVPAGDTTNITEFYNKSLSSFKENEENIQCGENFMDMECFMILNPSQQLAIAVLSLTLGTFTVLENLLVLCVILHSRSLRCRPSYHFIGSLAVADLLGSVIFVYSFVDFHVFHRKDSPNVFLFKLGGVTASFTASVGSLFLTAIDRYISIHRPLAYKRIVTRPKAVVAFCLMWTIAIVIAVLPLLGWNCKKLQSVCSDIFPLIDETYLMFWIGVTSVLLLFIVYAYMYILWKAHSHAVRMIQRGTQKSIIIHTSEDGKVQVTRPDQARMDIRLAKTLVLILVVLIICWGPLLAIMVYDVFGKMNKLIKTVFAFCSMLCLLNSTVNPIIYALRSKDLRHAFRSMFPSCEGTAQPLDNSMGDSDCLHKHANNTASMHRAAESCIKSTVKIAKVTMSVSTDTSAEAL

In the case of `Cn1c(C(C)(C)C)c/c(=N\C(=O)c2cc(C(F)(F)F)ccc2OC[C@@H]2CCCO2)n1C[C@H]1CCCO1` [Example 8, N-{(3E)-5-tert-butyl-1-methyl-2-[(2R)-tetrahydrofuran-2-ylmethyl]-1,2-dihydro-3H-pyrazol-3-ylidene}-2-[(2S)-tetrahydrofuran-2-ylmethoxy]-5-(trifluoromethyl)benzamide], the inhibition constant Ki at rat CB2 [1] came to 4.3 nM; at human CB2 receptors, 13 nM. Further, the EC50 on rat CB2 [2] (rat CB2 cyclase (EC50, nM)) was 0.59 nM; at Rat CB1 (Rat CB1 cyclase (EC50, nM)) it was 6340 nM.

In the case of `CN1CCC[C@H]1COc1ccc(C(F)(F)F)cc1C(=O)/N=c1\oc(C(C)(C)C)cn1C[C@H]1CCCO1` [Example 32, N-[(2Z)-5-tert-butyl-3-[(2R)-tetrahydrofuran-2-ylmethyl]-1,3-oxazol-2(3H)-ylidene]-2-{[(2S)-1-methylpyrrolidin-2-yl]methoxy}-5-(trifluoromethyl)benzamide], the Ki at rat CB2 [1] worked out at 75 nM; at human CB2 receptors it was 88 nM. Besides, the EC50 at rat CB2 [2] (rat CB2 cyclase (EC50, nM)) was 0.6 nM; on Rat CB1 (Rat CB1 cyclase (EC50, nM)), 3870 nM.

As for `Cn1c(C(C)(C)C)c/c(=N\C(=O)c2cc(C(F)(F)F)cc(Cl)c2OC[C@@H]2CCCO2)n1C[C@H]1CCCO1` [Example 28, N-{(3E)-5-tert-butyl-1-methyl-2-[(2R)-tetrahydrofuran-2-ylmethyl]-1,2-dihydro-3H-pyrazol-3-ylidene}-3-chloro-2-[(2S)-tetrahydrofuran-2-ylmethoxy]-5-(trifluoromethyl)benzamide], the results for the inhibition constant Ki at rat CB2 [1] and on human CB2 receptors were 15 nM and 44 nM, respectively. For the same compound, the concentration for a half-maximal effect (EC50) at rat CB2 [2] (rat CB2 cyclase (EC50, nM)) turned out to be 0.91 nM; at Rat CB1 (Rat CB1 cyclase (EC50, nM)), 8090 nM.

For the compound `CC(C)(C)c1cn(C[C@H]2CCCO2)/c(=N/C(=O)c2cc(C(F)(F)F)ccc2OCCN2CCCC2)o1` [Example 77, N-[(2Z)-5-tert-butyl-3-[(2R)-tetrahydrofuran-2-ylmethyl]-1,3-oxazol-2(3 H)-ylidene]-2-(2-pyrrolidin-1-ylethoxy)-5-(trifluoromethyl)benzamide], the inhibitory constant (Ki) on rat CB2 [1] was 73 nM; on human CB2 receptors, 96 nM. Besides, the EC50 at rat CB2 [2] (rat CB2 cyclase (EC50, nM)) worked out at 0.1 nM; at Rat CB1 (Rat CB1 cyclase (EC50, nM)) it was 2560 nM.

For the compound `Cn1c(C(C)(C)C)c/c(=N\C(=O)c2cc(C(F)(F)F)ccc2OCCCS(C)(=O)=O)n1C[C@H]1CCCO1` [Example 60, N-{(3E)-5-tert-butyl-1-methyl-2-[(2R)-tetrahydrofuran-2-ylmethyl]-1,2-dihydro-3 H-pyrazol-3-ylidene}-2-[3-(methylsulfonyl)propoxy]-5-(trifluoromethyl)benzamide], the Ki on rat CB2 [1] came out at 42 nM; at human CB2 receptors it was 92 nM. Moreover, the EC50 at rat CB2 [2] (rat CB2 cyclase (EC50, nM)) was 0.26 nM; at Rat CB1 (Rat CB1 cyclase (EC50, nM)), over 27000 nM.

As for `Cn1c(C(C)(C)C)c/c(=N\C(=O)c2cc(C(F)(F)F)ccc2OC[C@H]2CCCO2)n1C[C@H]1CCCO1` [Example 1, N-{(3E)-5-tert-butyl-1-methyl-2-[(2R)-tetrahydrofuran-2-ylmethyl]-1,2-dihydro-3H-pyrazol-3-ylidene}-2-[(2R)-tetrahydrofuran-2-ylmethoxy]-5-(trifluoromethyl)benzamide], the Ki at rat CB2 [1] was 23 nM; on human CB2 receptors, 51 nM. In addition, the EC50 on rat CB2 [2] (rat CB2 cyclase (EC50, nM)) amounted to 1.1 nM; on Rat CB1 (Rat CB1 cyclase (EC50, nM)), 5510 nM.

Regarding `CN1CCC[C@H]1COc1ccc(C(F)(F)F)cc1C(=O)/N=C1\SC(C)(C)CN1C[C@H]1CCCO1` [Example 33, N-{(2Z)-5,5-dimethyl-3-[(2R)-tetrahydrofuran-2-ylmethyl]-1,3-thiazolidin-2-ylidene}-2-{[(2S)-1-methylpyrrolidin-2-yl]methoxy}-5-(trifluoromethyl)benzamide], the inhibition constant (Ki) at rat CB2 [1] is 20 nM; at human CB2 receptors it was 23 nM. The EC50 on rat CB2 [2] (rat CB2 cyclase (EC50, nM)) was found to be 0.09 nM; on Rat CB1 (Rat CB1 cyclase (EC50, nM)), 5380 nM.

For the compound `CN1CCC[C@H]1COc1ccc(C(F)(F)F)cc1C(=O)/N=c1\oc(C(C)(C)C)cn1CC1CCC1` [Example 75], the values for the Ki at rat CB2 [1] and at human CB2 receptors were 44 nM and 42 nM, respectively. Also, the EC50 on rat CB2 [2] (rat CB2 cyclase (EC50, nM)) is 0.19 nM; on Rat CB1 (Rat CB1 cyclase (EC50, nM)), 1360 nM.

As for `Cn1c(C(C)(C)C)c/c(=N\C(=O)c2cc(C(F)(F)F)ccc2OCCNC(=O)OC(C)(C)C)n1C[C@H]1CCCO1` [Example 41, tert-butyl 2-[2-[({(3E)-5-tert-butyl-1-methyl-2-[(2R)-tetrahydrofuran-2-ylmethyl]-1,2-dihydro-3H-pyrazol-3-ylidene}amino)carbonyl]-4-(trifluoromethyl)phenoxy]ethylcarbamate], the inhibition constant (Ki) on rat CB2 [1] worked out at 21 nM; at human CB2 receptors it was 96 nM. The EC50 on rat CB2 [2] (read-out: rat CB2 cyclase (EC50)) is 1000 nM; on Rat CB1 (read-out: Rat CB1 cyclase (EC50)), over 27000 nM.

Consider `Cn1c(C(C)(C)C)c/c(=N\C(=O)c2cc(C(F)(F)F)ccc2OC[C@@H]2COC(C)(C)O2)n1C[C@H]1CCCO1` [Example 16, N-{(3E)-5-tert-butyl-1-methyl-2-[(2R)-tetrahydrofuran-2-ylmethyl]-1,2-dihydro-3H-pyrazol-3-ylidene}-2-{[(4R)-2,2-dimethyl-1,3-dioxolan-4-yl]methoxy}-5-(trifluoromethyl)benzamide], for which the inhibitory constant (Ki) at rat CB2 [1] turned out to be 23 nM; at human CB2 receptors it was 40 nM. Besides, the half-maximal effective concentration (EC50) was 0.47 nM at rat CB2 [2] (rat CB2 cyclase (EC50, nM)) and over 27000 nM on Rat CB1 (Rat CB1 cyclase (EC50, nM)).

As to `Cn1c(C(C)(C)C)c/c(=N\C(=O)c2cc(C(F)(F)F)ccc2OC[C@H]2OCC[C@H]2F)n1C[C@H]1CCCO1` [Example 24], the figures for the Ki at rat CB2 [1] and on human CB2 receptors were 20 nM and 16 nM, respectively. The EC50 on rat CB2 [2] (rat CB2 cyclase (EC50, nM)) was 0.28 nM; on Rat CB1 (Rat CB1 cyclase (EC50, nM)) it was 9200 nM.

`Cn1c(C(C)(C)C)c/c(=N\C(=O)c2cc(C(F)(F)F)ccc2OCC2CCS(=O)(=O)C2)n1C[C@H]1CCCO1` (stereo partly drawn) [Example 6, N-{(3E)-5-tert-butyl-1-methyl-2-[(2R)-tetrahydrofuran-2-ylmethyl]-1,2-dihydro-3H-pyrazol-3-ylidene}-2-[(1,1-dioxidotetrahydrothien-3-yl)methoxy]-5-(trifluoromethyl)benzamide]: the inhibitory constant (Ki) at rat CB2 [1] came out at 78 nM; on human CB2 receptors, 203 nM. Besides, the EC50 on rat CB2 [2] (rat CB2 cyclase (EC50, nM)) was found to be 7.5 nM; at Rat CB1 (Rat CB1 cyclase (EC50, nM)), 11200 nM.

As to `Cn1c(C(C)(C)C)c/c(=N\C(=O)c2cc(C(F)(F)F)ccc2OCCC2=CCCC2)n1C[C@H]1CCCO1` [Example 53, N-{(3E)-5-tert-butyl-1-methyl-2-[(2R)-tetrahydrofuran-2-ylmethyl]-1,2-dihydro-3H-pyrazol-3-ylidene}-2-(2-cyclopent-1-en-1-ylethoxy)-5-(trifluoromethyl)benzamide], the inhibition constant Ki was determined as 2.8 nM at rat CB2 [1] and 1.5 nM at human CB2 receptors. The concentration giving a half-maximal response (EC50) at rat CB2 [2] (rat CB2 cyclase (EC50, nM)) is 2.7 nM; on Rat CB1 (Rat CB1 cyclase (EC50, nM)), 1970 nM.

For `CCS(=O)(=O)NCCOc1ccc(C(F)(F)F)cc1C(=O)/N=c1\cc(C(C)(C)C)n(C)n1C[C@H]1CCCO1` [Example 50], the figures for the inhibition constant Ki at rat CB2 [1] and at human CB2 receptors were 8.5 nM and 21 nM, respectively. Also, the concentration for a half-maximal effect (EC50) stood at 0.12 nM on rat CB2 [2] (rat CB2 cyclase (EC50, nM)) and 1180 nM on Rat CB1 (Rat CB1 cyclase (EC50, nM)).

For `CSCCCOc1ccc(C(F)(F)F)cc1C(=O)/N=c1\cc(C(C)(C)C)n(C)n1C[C@H]1CCCO1` [Example 58], the figures for the Ki at rat CB2 [1] and on human CB2 receptors were 5.1 nM and 3.9 nM, respectively. Further, the EC50 on rat CB2 [2] (rat CB2 cyclase (EC50, nM)) is 0.7 nM; on Rat CB1 (Rat CB1 cyclase (EC50, nM)) it was over 27000 nM.

In the case of `CSCCOc1ccc(C(F)(F)F)cc1C(=O)/N=c1\cc(C(C)(C)C)n(C)n1C[C@H]1CCCO1` [Example 57], the Ki amounted to 1.9 nM at rat CB2 [1] and 11 nM on human CB2 receptors. Also, the EC50 was determined as 1.4 nM on rat CB2 [2] (rat CB2 cyclase (EC50, nM)) and 7530 nM at Rat CB1 (Rat CB1 cyclase (EC50, nM)).

Regarding `Cn1c(C(C)(C)C)c/c(=N\C(=O)c2cc(C(F)(F)F)ccc2OCc2cnccn2)n1C[C@H]1CCCO1` [Example 40, N-{(3E)-5-tert-butyl-1-methyl-2-[(2R)-tetrahydrofuran-2-ylmethyl]-1,2-dihydro-3H-pyrazol-3-ylidene}-2-(pyrazin-2-ylmethoxy)-5-(trifluoromethyl)benzamide], the inhibition constant (Ki) at rat CB2 [1] came to 73 nM; at human CB2 receptors, 126 nM. Moreover, the EC50 at rat CB2 [2] (rat CB2 cyclase (EC50, nM)) is 3.3 nM; at Rat CB1 (Rat CB1 cyclase (EC50, nM)), over 27000 nM.
